Assay results from ChEMBL document CHEMBL3879914, “Inhibitors of central nervous system vasoactive inhibitory peptide receptor 2” (2014).

Assays:
[1] = target: T1, Vasoactive intestinal polypeptide receptor 2 (Homo sapiens) (UniProt P41587); assay: (§1) Antagonist activity at recombinant human N-terminal signal peptide/FLAG epitope-tagged VIPR2 expressed in HEK293 cells co-expressing CAMYEL assessed as inhibition of VIP-induced cAMP accumulation at 0.5 uM preincubated for 5 mins with luciferin, coelenterazine H followed by VIP addition measured after 5 mins by BRET assay relative to control; format: functional, cell-based
T1 sequence (whole entry): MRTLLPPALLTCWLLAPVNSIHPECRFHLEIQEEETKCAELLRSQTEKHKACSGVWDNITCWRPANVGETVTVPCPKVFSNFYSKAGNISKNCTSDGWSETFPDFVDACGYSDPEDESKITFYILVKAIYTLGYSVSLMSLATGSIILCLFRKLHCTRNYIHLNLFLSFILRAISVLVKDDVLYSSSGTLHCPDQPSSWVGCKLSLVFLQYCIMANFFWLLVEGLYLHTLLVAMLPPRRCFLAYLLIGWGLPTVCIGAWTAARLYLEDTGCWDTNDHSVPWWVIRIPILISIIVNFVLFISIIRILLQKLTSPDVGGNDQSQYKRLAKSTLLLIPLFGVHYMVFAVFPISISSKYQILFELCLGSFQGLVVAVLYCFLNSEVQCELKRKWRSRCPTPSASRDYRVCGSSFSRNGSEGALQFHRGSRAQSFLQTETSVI

[2] = target: T1, Vasoactive intestinal polypeptide receptor 2 (Homo sapiens); assay: as §1, with “5” for “0.5”; format: functional, cell-based
[3] = target: T1, Vasoactive intestinal polypeptide receptor 2 (Homo sapiens); assay: as §1, with “1” for “0.5”; format: functional, cell-based
[4] = target: T1, Vasoactive intestinal polypeptide receptor 2 (Homo sapiens); assay: as §1, with “epitope-tagged Rluc8-fused” for “epitope-tagged”, “cells” for “cells co-expressing CAMYEL”, “human mVenus-beta-arrestin2 binding” for “cAMP accumulation”, “5” for “0.5”; format: cell-based
[5] = target: T1, Vasoactive intestinal polypeptide receptor 2 (Homo sapiens); assay: as §1, with “epitope-tagged Rluc8-fused” for “epitope-tagged”, “cells” for “cells co-expressing CAMYEL”, “human mVenus-beta-arrestin2 binding” for “cAMP accumulation”, “1” for “0.5”; format: cell-based
[6] = target: T1, Vasoactive intestinal polypeptide receptor 2 (Homo sapiens); assay: as §1, with “epitope-tagged Rluc8-fused” for “epitope-tagged”, “cells” for “cells co-expressing CAMYEL”, “human mVenus-beta-arrestin2 binding” for “cAMP accumulation”; format: cell-based

Row | SMILES | inhibition [1] [%] | inhibition [2] [%] | inhibition [3] [%] | inhibition [4] [%] | inhibition [5] [%] | inhibition [6] [%]
1 | O=C([C@H](Cc1ccccc1)C[C@H](O)CNS(=O)(=O)c1ccc([N+](=O)[O-])cc1)N1CCOCC1 | -3.8 | 2.4 | -1.6 | -1.2 | 8.9 | -4.3 to 0.6
2 | C#CCNC(=O)[C@@H](Cc1ccccc1)C[C@H](O)CNS(=O)(=O)c1ccc([N+](=O)[O-])cc1 | 3.1 | 13.5 | 7.3 | 7 | 3.4 | 3.3 to 10.2
3 | CC(=O)Nc1ccc(S(=O)(=O)NC[C@H](C[C@@H](Cc2ccccc2)C(=O)N[C@H]2c3ccccc3C[C@H]2OC(C)=O)OC(C)=O)cc1 | -8.7 | -5.8 | -8.7 | 9.7 | 0.2 | 0.5 to 1.95
4 | O=C(CCl)NC[C@@H](O)C[C@@H](Cc1ccccc1)C(=O)N[C@H]1c2ccccc2C[C@H]1O | 18.4 | 15.6 | 19.2 | 17.5 | 23.7 | 9.9 to 16.6
5 | O=C(NC[C@@H](O)C[C@@H](Cc1ccccc1)C(=O)N[C@H]1c2ccccc2C[C@H]1O)c1c(Cl)cc(Cl)cc1Cl | 17.6 | 12.3 | 14.8 | 31.5 | 25.3 | 21.9 to 23.9
6 | CC(=O)Nc1ccc(S(=O)(=O)NC[C@H](C[C@@H](Cc2ccccc2)C(=O)N[C@H]2c3ccccc3C[C@H]2O)OC(C)=O)cc1 | -4.3 | 3 | 32.3 | 10.5 | -1.8 | -9.8 to 6.75
7 | CC(C)c1ccc(S(=O)(=O)NC[C@@H](O)C[C@@H](Cc2ccccc2)C(=O)N[C@H]2c3ccccc3C[C@H]2O)cc1 | 36.5 | 98.2 | 44.2 | 87.7 | 63.1 | 31.5 to 93
8 | O=C(N[C@H]1c2ccccc2C[C@H]1O)[C@H](Cc1ccccc1)C[C@H](O)CNS(=O)(=O)c1ccc(C(F)(F)F)cc1 | 42 | 98.5 | 63.1 | 92.9 | 83 | 58.1 to 95.7
9 | O=C(NC[C@@H](O)C[C@@H](Cc1ccccc1)C(=O)N[C@H]1c2ccccc2C[C@H]1O)c1ccccn1 | 14.9 | 20.3 | 17.7 | 5.5 | 32.7 | 6.1 to 12.9
10 | CNc1ccc(S(=O)(=O)NC[C@@H](O)C[C@@H](Cc2ccccc2)C(=O)N[C@H]2c3ccccc3C[C@H]2O)cc1 | -0.9 | -7.3 | 2 | 4.3 | 1.1 | -1.5 to -0.8
11 | Cc1cc(S(=O)(=O)NC[C@@H](O)C[C@@H](Cc2ccccc2)C(=O)N[C@H]2c3ccccc3C[C@H]2O)c(C)cc1Cl | 20.6 | 41.1 | 21.6 | 0.6 | 30.2 | 17.6 to 20.9
12 | O=C(NC[C@@H](O)C[C@@H](Cc1ccccc1)C(=O)N[C@H]1c2ccccc2C[C@H]1O)C1CCCCCC1 | 18.4 | 17 | 17 | 10.5 | 16.4 | 13.8 to 24.4
13 | CN(C)c1ccc(S(=O)(=O)NC[C@@H](O)C[C@@H](Cc2ccccc2)C(=O)N[C@H]2c3ccccc3C[C@H]2O)cc1 | 9.4 | -3.4 | -1.4 | 8.7 | -1.6 | 2.65 to 4.2
14 | CCCNc1ccc(S(=O)(=O)NC[C@@H](O)C[C@@H](Cc2ccccc2)C(=O)N[C@H]2c3ccccc3C[C@H]2O)cc1 | -2.9 | 24.5 | 11.3 | 6.7 | 2.6 | 4.1 to 15.6
15 | O=C(NC1Cc2ccccc2C1)[C@H](Cc1ccccc1)C[C@H](O)CNS(=O)(=O)c1ccc([N+](=O)[O-])cc1 | 5.7 | 16 | 7.5 | 9.8 | 8.1 | -2.7 to 12.9
16 | CCN(CC)C(=O)[C@H](Cc1ccccc1)C[C@H](O)CNS(=O)(=O)c1ccc([N+](=O)[O-])cc1 | -8.1 | -4.3 | -6.1 | 5.7 | 7.9 | -5.4 to 0.7
17 | CCCCCNc1ccc(S(=O)(=O)NC[C@@H](O)C[C@@H](Cc2ccccc2)C(=O)N[C@H]2c3ccccc3C[C@H]2O)cc1 | 10.8 | 19.1 | 19.1 | 11.3 | 2.3 | 2.8 to 15.2
18 | CC1CCC(NC(=O)[C@@H](Cc2ccccc2)C[C@H](O)CNS(=O)(=O)c2ccc([N+](=O)[O-])cc2)CC1 (stereo partly specified) | -0.7 | 5.1 | 9.5 | -0.8 | -0.4 | 2.15 to 5.7

Second part, the compound after the results:

Row | inhibition [1] [%] | inhibition [2] [%] | inhibition [3] [%] | inhibition [4] [%] | inhibition [5] [%] | inhibition [6] [%] | SMILES
19 | 17.6 | 9.1 | 14.3 | 26.1 | 35.1 | 17.6 to 36.4 | O=C(NC[C@@H](O)C[C@@H](Cc1ccccc1)C(=O)N[C@H]1c2ccccc2C[C@H]1O)c1ccccc1[N+](=O)[O-]
20 | -5.5 | 7.8 | -3.4 | -8.6 | -7.8 | -6.7 to -0.4 | O=C(NCCc1cccc(Cl)c1)[C@H](Cc1ccccc1)C[C@H](O)CNS(=O)(=O)c1ccc([N+](=O)[O-])cc1
21 | 5.1 | 17.4 to 69.5 | 6.6 to 69.5 | 0.6 | 5.9 | 4.8 to 9 | O=C(NC1CCCc2ccccc21)[C@@H](Cc1ccccc1)C[C@H](O)CNS(=O)(=O)c1ccc([N+](=O)[O-])cc1 (stereo partly specified)
22 | 17.4 | 20.3 | 18.5 | 5.2 | 6.8 | -3.8 to 12.8 | O=C(NC[C@@H](O)C[C@@H](Cc1ccccc1)C(=O)N[C@H]1c2ccccc2C[C@H]1O)c1cccc(Br)c1
23 | 21.4 | 18.5 | 21.9 | 23.4 | 31.6 | 17.3 to 20.9 | CS(=O)(=O)NC[C@@H](O)C[C@@H](Cc1ccccc1)C(=O)N[C@H]1c2ccccc2C[C@H]1O
24 | 21.6 | 27.4 | 16.7 | 11.9 | 5.2 | 10.2 to 19.6 | CC(C)CNc1ccc(S(=O)(=O)NC[C@@H](O)C[C@@H](Cc2ccccc2)C(=O)N[C@H]2c3ccccc3C[C@H]2O)cc1
25 | 9.3 | 13 | 10.7 | 14.7 | 23.4 | 11.1 to 13.8 | O=C(NCCc1cccc(Cl)c1)[C@@H](Cc1ccccc1)C[C@H](O)CNS(=O)(=O)c1ccc([N+](=O)[O-])cc1
26 | -1 | 4.9 | 1.5 | 7.2 | -4.1 | -0.3 to 6.05 | O=C(NCc1ccccc1)[C@@H](Cc1ccccc1)C[C@H](O)CNS(=O)(=O)c1ccc([N+](=O)[O-])cc1
27 | 18.4 | 19.6 | 18.3 | 20 | 17.4 | 9.5 to 19.8 | O=C(NC[C@@H](O)C[C@@H](Cc1ccccc1)C(=O)N[C@H]1c2ccccc2C[C@H]1O)C(Cl)Cl
28 | 15.5 | 18.6 | 19 | -3.1 | 15.2 | 7.75 to 9.9 | O=C(CCN1C(=O)C=CC1=O)NC[C@@H](O)C[C@@H](Cc1ccccc1)C(=O)N[C@H]1c2ccccc2C[C@H]1O
29 | 16.1 | 23.8 | 16.5 | 1.8 | 47.5 | 2.3 to 12.8 | C=Cc1ccc(C(=O)NC[C@@H](O)C[C@@H](Cc2ccccc2)C(=O)N[C@H]2c3ccccc3C[C@H]2O)cc1
30 | -2.4 | 34.3 | 23 | -4.2 | -0.3 | 6.4 to 15.1 | O=C(Nc1ccc(S(=O)(=O)NC[C@@H](O)C[C@@H](Cc2ccccc2)C(=O)N[C@H]2c3ccccc3C[C@H]2O)cc1)C1CC1
31 | 13.2 | 23.5 | 16.3 | 9.7 | 11.1 | -2.9 to 16.6 | O=C(NC[C@@H](O)C[C@@H](Cc1ccccc1)C(=O)N[C@H]1c2ccccc2C[C@H]1O)c1ccc2ccccc2c1
